BigSolDB 2.1

C=CC(=O)N1CCC[C@@H](n2nc(-c3ccc(Oc4ccccc4)cc3)c3c(N)ncnc32)C1
solubility (mole fraction)
Conditions	298.15 K	303.15 K	308.15 K	313.15 K	323.15 K
in ethanol	0.00312	0.00356	0.00396	0.00447	0.00551
in water	1.42e-07	2.22e-07	3.12e-07	4.29e-07	7.77e-07
